From the supplement of paper PMC4862054

Tests used:
Conditions in all cases: incubation time: 72 h
HDQ-P1 [1] = assay: normalised response (% of control), CellTox Green; higher = less cell death (100 = DMSO, 0 = benzethonium chloride kill control)
In short: (§1)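 Breast cancer cell lines (20 µl suspension) were seeded into 384-well plates holding compound at 5 concentrations in 10-fold steps over a compound-specific 10,000-fold range, then incubated 72 h. CellTox Green fluorescence (485/520 nm) was read first, then CellTiter-Glo luminescence after 10 min at room temperature. Each plate was normalised to 0.1 % DMSO (100) and a positive kill control (0). Each value is the normalised signal at a single concentration of the series.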

CAL-148 [2] = assay: as above
In short: as §1

DU-4475 = assay: as above
In short: as §1

MDA-MB-231 [3] = assay: as above
In short: as §1

Hs578T [4] = assay: as above
In short: as §1

CAL-85-1 [5] = assay: as above
In short: as §1

HCC1599 [6] = assay: as above
In short: as §1

HCC1143 [7] = assay: as above
In short: as §1

MCF-10A [8] = assay: as above
In short: as §1

MDA-MB-436 [9] = assay: as above
In short: as §1

BT-549 [10] = assay: as above
In short: as §1

CAL-120 [11] = assay: as above
In short: as §1

HCC1937 [12] = assay: as above
In short: as §1

MDA-MB-453 [13] = assay: as above
In short: as §1

HDQ-P1 [14] = assay: normalised response (% of control), CellTiter-Glo; higher = more viable cells (100 = DMSO, 0 = benzethonium chloride kill control)
In short: as §1

CAL-148 [15] = assay: as above
In short: as §1

MFM-223 = assay: as above
In short: as §1

MDA-MB-231 [16] = assay: as above
In short: as §1

Hs578T [17] = assay: as above
In short: as §1

MDA-MB-468 = assay: as above
In short: as §1

CAL-85-1 [18] = assay: as above
In short: as §1

HCC1599 [19] = assay: as above
In short: as §1

HCC1143 [20] = assay: as above
In short: as §1

MCF-10A [21] = assay: as above
In short: as §1

CAL-51 = assay: as above
In short: as §1

MDA-MB-436 [22] = assay: as above
In short: as §1

BT-549 [23] = assay: as above
In short: as §1

BT-474 = assay: as above
In short: as §1

CAL-120 [24] = assay: as above
In short: as §1

HCC1937 [25] = assay: as above
In short: as §1

MDA-MB-453 [26] = assay: as above
In short: as §1

SK-BR-3 = assay: as above
In short: as §1

| SMILES | normalised response (HDQ-P1 [1]) | normalised response (CAL-148 [2]) | normalised response (DU-4475) | normalised response (MDA-MB-231 [3]) | normalised response (Hs578T [4]) | normalised response (CAL-85-1 [5]) | normalised response (HCC1599 [6]) | normalised response (HCC1143 [7]) | normalised response (MCF-10A [8]) | normalised response (MDA-MB-436 [9]) | normalised response (BT-549 [10]) | normalised response (CAL-120 [11]) | normalised response (HCC1937 [12]) | normalised response (MDA-MB-453 [13]) | normalised response (HDQ-P1 [14]) | normalised response (CAL-148 [15]) | normalised response (MFM-223) | normalised response (MDA-MB-231 [16]) | normalised response (Hs578T [17]) | normalised response (MDA-MB-468) | normalised response (CAL-85-1 [18]) | normalised response (HCC1599 [19]) | normalised response (HCC1143 [20]) | normalised response (MCF-10A [21]) | normalised response (CAL-51) | normalised response (MDA-MB-436 [22]) | normalised response (BT-549 [23]) | normalised response (BT-474) | normalised response (CAL-120 [24]) | normalised response (HCC1937 [25]) | normalised response (MDA-MB-453 [26]) | normalised response (SK-BR-3) |
| --- | --- | --- | --- | --- | --- | --- | --- | --- | --- | --- | --- | --- | --- | --- | --- | --- | --- | --- | --- | --- | --- | --- | --- | --- | --- | --- | --- | --- | --- | --- | --- | --- |
| CN1CCN(c2nc(C3=C(c4c[nH]c5ccccc45)C(=O)NC3=O)c3ccccc3n2)CC1 [Sotrastaurin] (1000 nM) | 66.9% | 58.2% | 99.8% | 108% | 105% | 106% | 92.9% | 58.9% | 108% | 102% | 111% | 102% | 108% | 105% | 93.5% | 88% | 91.6% | 108% | 101% | 91.6% | 121% | 115% | 92.5% | 95.3% | 122% | 102% | 101% | 105% | 93.7% | 96% | 102% | 90.9% |
| Cn1nnc2c(C(N)=O)ncn2c1=O [Temozolomide] (1000 nM) | 100% | 95.8% | 100% | 109% | 94.3% | 108% | 94.6% | 50.4% | 89.5% | 80.5% | 108% | 103% | 96.6% | 105% | 98.8% | 97.6% | 94.8% | 93.3% | 91.7% | 91.8% | 99.4% | 116% | 98.1% | 104% | 76.4% | 104% | 101% | 95.4% | 99.3% | 93.9% | 100% | 92% |
| CC(C)C[C@H](NC(=O)[C@H](CCc1ccccc1)NC(=O)CN1CCOCC1)C(=O)N[C@@H](Cc1ccccc1)C(=O)N[C@@H](CC(C)C)C(=O)[C@@]1(C)CO1 [Carfilzomib] (100 nM) | -12.1% | 14.6% | 86.1% | -17.7% | 46.7% | -43% | 97.3% | 82.7% | 69.7% | 18.8% | 50.8% | 11.9% | 32.5% | 90.1% | 0.29% | 0.66% | 4.43% | 0.22% | 0.88% | 0.79% | 0.78% | 52% | 8.24% | 43.6% | 2.57% | 1.46% | 1.4% | 0.61% | 2.73% | 4.85% | 12.2% | 3.27% |
| O=NN(CCCl)C(=O)NC1CCCCC1 [Lomustine] (1000 nM) | 55.3% | 106% | 99.4% | 90% | 98.3% | 98.6% | 93.7% | 108% | 96.9% | 84.8% | 104% | 103% | 120% | 103% | 102% | 95.3% | 98% | 98.5% | 101% | 104% | 94.1% | 128% | 98.1% | 105% | 112% | 104% | 107% | 101% | 100% | 102% | 113% | 94.6% |
| NC1(c2ccc(-c3nc4ccn5c(=O)[nH]nc5c4cc3-c3ccccc3)cc2)CCC1 [MK-2206] (100 nM) | 108% | 109% | 104% | 110% | 116% | 102% | 108% | 97.8% | 105% | 107% | 133% | 101% | 63.5% | 105% | 99.2% | 97% | 98.5% | 103% | 97.2% | 94.6% | 109% | 104% | 98.2% | 107% | 95.1% | 108% | 90.3% | 97.4% | 99.8% | 96.6% | 76.5% | 83.5% |
| Nc1nc(Cl)nc2c1ncn2[C@@H]1O[C@H](CO)[C@@H](O)[C@@H]1F [Clofarabine] (1000 nM) | 101% | 67.1% | 103% | 111% | 95.3% | 88.3% | 81.2% | 112% | 110% | 105% | 70.7% | 103% | 109% | 113% | 79.4% | 58.5% | 103% | 91% | 91.9% | 43.7% | 47.4% | 61.7% | 44.1% | 68.1% | 26.9% | 22.9% | 35.7% | 78.7% | 75.3% | 89.9% | 127% | 42.7% |
| CC(C)C(=O)Nc1ccc([N+](=O)[O-])c(C(F)(F)F)c1 [Flutamide] (1000 nM) | 114% | 104% | 99.8% | 98.5% | 108% | 101% | 94.6% | 99.2% | 97.9% | 99.7% | 115% | 102% | 118% | 102% | 101% | 99.9% | 99.8% | 101% | 100% | 96.9% | 93.5% | 111% | 100% | 99.3% | 93.2% | 98.1% | 103% | 103% | 94.7% | 96.2% | 99.7% | 93.9% |
| COc1cc2c(Oc3ccc(NC(=O)C4(C(=O)Nc5ccc(F)cc5)CC4)cc3F)ccnc2cc1OCCCN1CCOCC1 [Foretinib] (100 nM) | 109% | 102% | 101% | 65.1% | 83.7% | 100% | 99.2% | 106% | 111% | 102% | 113% | 101% | 111% | 107% | 95.5% | 102% | 75.7% | 87% | 96.1% | 105% | 98% | 89.8% | 93.8% | 95.1% | 99.5% | 110% | 114% | 92.3% | 93.9% | 98.1% | 85.6% | 107% |
| CO[C@H](C(=O)[C@@H](O)[C@@H](C)O)[C@@H]1Cc2cc3cc(O[C@H]4C[C@@H](O[C@@H]5C[C@@H](O)[C@H](O)[C@@H](C)O5)[C@H](O)[C@@H](C)O4)c(C)c(O)c3c(O)c2C(=O)[C@H]1O[C@H]1C[C@@H](O[C@@H]2C[C@@H](O)[C@@H](O[C@@H]3C[C@](C)(O)[C@H](O)[C@@H](C)O3)[C@@H](C)O2)[C@H](O)[C@@H](C)O1 [Plicamycin] (1000 nM) | 97.8% | 109% | 104% | 106% | 106% | 99.3% | 94.9% | 81.6% | 86.6% |  | 107% | 103% | 104% | 104% | 102% | 104% | 104% | 94.2% | 104% | 91% | 100% | 120% | 101% | 110% | 86.9% | 103% | 89.5% | 91% | 105% | 90% | 105% | 106% |
| CCCCCOC(=O)Nc1nc(=O)n([C@@H]2O[C@H](C)[C@@H](O)[C@H]2O)cc1F [Capecitabine] (1000 nM) | 110% | 76.8% | 99.2% |  | 71.7% | 109% | 96.3% | 109% | 64.8% | 100% | 117% | 102% | 71.6% | 103% | 96.2% | 98.6% | 102% | 98.2% | 107% | 101% | 92.2% | 104% | 103% | 97% | 112% | 98.7% | 104% | 103% | 107% | 94% | 111% | 105% |
